From patent US8513271B2, “Pyrimidine compounds as delta opioid receptor modulators” (Janssen Pharmaceutica, NV, priority 2009, dated 2013)
Like-named read-outs stand apart in the source and are kept apart here.

Molecular target: T1, delta opioid receptor (Mus musculus, UniProt P32300)
T1 construct: NG108-15 cell membranes were purchased from Applied Cell Sciences (Rockville, Md.); host or cells: NG108-15 cell membranes
Experiment: [35S]GTPγS binding assay in NG108-15 cell membranes (delta opioid functional assay), 200 nM screen
Type: biochemical
Details: NG108-15 cell membranes; for GTPγS δ-RelEfficacy @200 nM: 200 nM test compound, relative to calculated max of SNC80 dose response curve; for GTPγS δ-RelEfficacy @200 nM / EC50: averages if tested more than once; for GTPγS δ-opioid receptor Rel Efficacy: relative efficacy from dose response

[1] = read-out: GTPγS δ-opioid receptor EC50
[2] = GTPγS δ-opioid receptor EC50 (μM)

T1 sequence (P32300 whole entry): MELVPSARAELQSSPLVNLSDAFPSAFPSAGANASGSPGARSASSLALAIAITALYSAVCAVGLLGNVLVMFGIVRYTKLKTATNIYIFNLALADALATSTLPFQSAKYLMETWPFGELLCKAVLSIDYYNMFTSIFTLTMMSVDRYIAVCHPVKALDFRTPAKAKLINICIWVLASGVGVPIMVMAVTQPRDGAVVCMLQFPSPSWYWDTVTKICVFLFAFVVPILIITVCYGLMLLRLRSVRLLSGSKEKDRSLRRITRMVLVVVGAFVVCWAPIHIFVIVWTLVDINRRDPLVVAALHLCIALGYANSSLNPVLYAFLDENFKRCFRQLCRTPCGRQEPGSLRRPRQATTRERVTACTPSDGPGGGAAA

Structure (SMILES)	GTPγS δ-RelEfficacy @200 nM	EC50 [1]	GTPγS δ-opioid receptor Rel Efficacy	EC50 [2]
COc1ccc(Oc2nc(-c3cncc(C#N)c3)ncc2N2CC3CC(C2)N3)cc1 [Cpd 338]	0.723	0.197 µM	0.956	–
COc1ccc(Oc2nc(-c3cncc(C#N)c3)ncc2N[C@H]2CCCNC2)cc1 [Cpd 199]	0.615	–	1.140	–
N#Cc1cncc(-c2ncc(NC[C@@H]3CCCN3)c(Oc3cccc(O)c3)n2)c1 [Cpd 231]	1.159	–	1.113	0.005 µM
COc1cncc(-c2ncc(NC[C@@H]3CCCN3)c(Oc3cccc(O)c3)n2)c1 [Cpd 249]	1.000	–	0.940	0.011 µM
COc1ccc(Oc2nc(-c3cncc(C#N)c3)ncc2N[C@H]2CCCNC2)cc1 [Cpd 207]	0.963	–	1.047	–
Cc1ccc(Oc2nc(-c3cccnc3)ncc2NC[C@@H]2CCCN2)c(F)c1F [Cpd 192]	0.135	–	–	–
COc1ccc(Oc2nc(-c3cncc(C#N)c3)ncc2N2CC(CN)C2)cc1 [Cpd 331]	0.764	0.108 µM	0.928	–
COc1ccc(Oc2nc(-c3cncc(SC)c3)ncc2N[C@@H]2CCC[C@H](N)C2)cc1 [Cpd 317]	–	–	–	> 1 µM
COc1ccc(Oc2nc(-c3cncc(C#N)c3)ncc2N2CCC[C@@H](N)C2)cc1 [Cpd 330]	0.547	0.051 µM	0.894	–
COc1ccc(Oc2nc(-c3cncc(F)c3)ncc2NC[C@@H]2CCCN2)cc1C [Cpd 205]	0.609	–	1.178	0.044 µM
CS(=O)(=O)c1ccc(Oc2nc(-c3cncc(F)c3)ncc2NC[C@@H]2CCCN2)cc1 [Cpd 222]	0.284	–	–	–
COc1ccc(Oc2nc(-c3cncc(SC)c3)ncc2N[C@@H]2CCCNC2)cc1 [Cpd 254]	–	–	0.928	0.151 µM
Cc1ccc(Oc2nc(-c3cncc(C#N)c3)ncc2NC[C@@H]2CCCN2)c(F)c1F [Cpd 189]	0.375	–	–	–
O=CNc1ccc(Oc2nc(-c3cncc(F)c3)ncc2NC[C@@H]2CCCN2)cc1 [Cpd 223]	0.802	0.152 µM	0.986	–
CS(=O)(=O)Nc1ccc(Oc2nc(-c3cccnc3)ncc2NC[C@@H]2CCCN2)cc1 [Cpd 214]	0.115	–	–	–
FCc1ccc(Oc2nc(-c3cccnc3)ncc2NC[C@@H]2CCCN2)cc1 [Cpd 217, [4-(4-Fluoromethyl-phenoxy)-2-pyridin-3-yl-pyrimidin-5-yl]-pyrrolidin-2-(S)-ylmethyl-amine]	0.480	0.612 µM	0.882	–
COc1cncc(-c2ncc(NC[C@@H]3CCCN3)c(Oc3cccc(OC(C)=O)c3)n2)c1 [Cpd 250, Acetic acid 3-{2-(5-methoxy-pyridin-3-yl)-5-[(pyrrolidin-2-(S)-ylmethyl)-amino]-pyrimidin-4-yloxy}-phenyl ester]	0.912	–	1.022	0.026 µM
COc1ccc(Oc2nc(-c3cncc(C#N)c3)ncc2N2CC[C@H](N)C2)cc1 [Cpd 328]	0.377	–	–	–
COc1ccc(Oc2nc(-c3cncc(SC)c3)ncc2N[C@H]2CCC[C@@H](N)C2)cc1 [Cpd 316]	–	–	0.977	0.00338 µM
COc1ccc(Oc2nc(-c3cncc(C)c3)ncc2N[C@@H]2CCCNC2)cc1 [Cpd 258]	–	–	0.835	0.075 µM
COc1ccc(Oc2nc(-c3cncc(C#N)c3)ncc2N2CCC[C@@H]2CN)cc1 [Cpd 332]	0.393	–	–	–
O=C(Nc1ccc(Oc2nc(-c3cccnc3)ncc2NC[C@@H]2CCCN2)cc1)OCc1ccccc1 [Cpd 177, (4-{2-Pyridin-3-yl-5-[(pyrrolidin-2-(S)-ylmethyl)-amino]-pyrimidin-4-yloxy}-phenyl)-carbamic acid benzyl ester]	0.511	0.255 µM	1.389	–
COc1ccc(Oc2nc(-c3cncc(C#N)c3)ncc2NCC2CNC2)cc1 [Cpd 215]	0.674	0.128 µM	1.002	–

Structure (SMILES)	GTPγS δ-RelEfficacy @200 nM	EC50 [1]	GTPγS δ-opioid receptor Rel Efficacy	EC50 [2]
COc1ccc(Oc2nc(-c3cncc(C#N)c3)ncc2NCc2[nH]cnc2C)cc1 [Cpd 285, 5-{4-(4-Methoxy-phenoxy)-5-[(5-methyl-3H-imidazol-4-ylmethyl)-amino]-pyrimidin-2-yl}-nicotinonitrile]	0.730	–	0.782	0.027 µM
COc1ccc(Oc2nc(-c3cc(C)cnc3C)ncc2NC[C@@H]2CCCN2)cc1 [Cpd 263]	–	–	0.869	0.027 µM
COc1cncc(-c2ncc(NC[C@@H]3CCCN3)c(Oc3ccccc3Cl)n2)c1 [Cpd 232]	0.679	0.143 µM	1.021	–
CCc1ccc(Oc2nc(-c3cncc(C#N)c3)ncc2NC[C@@H]2C[C@@H](F)CN2)cc1 [Cpd 195]	0.477	0.194 µM	1.119	–
COc1ccc(Oc2nc(-c3cnc(Cl)c(C)c3)ncc2NC[C@@H]2CCCN2)cc1 [Cpd 266]	–	–	1.041	0.018 µM
c1cncc(-c2ncc(N3CCNCC3)c(Oc3ccc(C4CC4)cc3)n2)c1 [Cpd 320]	–	0.191 µM	0.918	–
COc1ccc(Oc2nc(-c3ccccc3)ncc2N2CCNCC2)cc1 [Cpd 324]	0.519	0.428 µM	1.045	–
COc1ccc(Oc2nc(-c3cccnc3)ncc2NC2CCCC(N)C2)cc1 (single isomer, unassigned) [Cpd 307]	0.880	–	1.191	0.011 µM
Cc1ccc(Oc2nc(-c3cncc(F)c3)ncc2NC[C@@H]2CCCN2)cc1 [Cpd 178]	0.578	0.3 µM	1.239	–
CC(=O)Oc1cccc(Oc2nc(-c3cncc(C)c3)ncc2NC[C@@H]2CCCN2)c1 [Cpd 251]	0.955	–	1.145	0.015 µM
COc1ccc(Oc2nc(-c3cncc(C#N)c3)ncc2N2CCC[C@H](N)C2)cc1 [Cpd 329]	0.475	0.138 µM	1.006	–
CNCCNc1cnc(-c2cccnc2)nc1Oc1ccc(OC)cc1 [Cpd 297]	–	0.424 µM	0.820	–
COc1ccc(Oc2nc(-c3cncc(OC)c3)ncc2NC[C@@H]2C[C@@H](O)CN2)cc1 [Cpd 273, 5-(S)-{[4-(4-Methoxy-phenoxy)-2-(5-methoxy-pyridin-3-yl)-pyrimidin-5-ylamino]-methyl}-pyrrolidin-3-(R)-ol]	–	–	1.001	0.026 µM
COc1ccc(Oc2nc(-c3cncc(C)c3)ncc2N2CC[C@@H](N)C2)cc1 [Cpd 352]	–	–	0.967	0.079 µM
O=C(Nc1ccc(Oc2nc(-c3cncc(F)c3)ncc2NC[C@@H]2CCCN2)cc1)OCc1ccccc1 [Cpd 197]	0.411	0.145 µM	1.289	–
COc1ccc(Oc2nc(-c3cncc(C#N)c3)ncc2N2CCNCC2)cc1 [Cpd 325]	0.866	–	1.042	0.011 µM
COc1ccc(Oc2nc(-c3cncc(C#N)c3)ncc2N2CCC(N)CC2)cc1 [Cpd 333]	0.664	0.118 µM	1.116	–
O=C(c1ccc(Oc2nc(-c3cncc(F)c3)ncc2NC[C@@H]2CCCN2)cc1)N1CCCC1 [Cpd 176]	0.112	–	–	–
COc1ccc(Oc2nc(-c3cccnc3)ncc2N[C@H]2CC[C@@H](N)CC2)cc1 [Cpd 305]	0.780	–	1.081	0.09 µM
Cc1cccc(Oc2nc(-c3cncc(C#N)c3)ncc2NC[C@@H]2CCCN2)c1 [Cpd 200]	0.289	–	–	–
COc1ccc(Oc2nc(-c3cncc(OC)c3)ncc2NCc2cnc[nH]2)cc1 [Cpd 290]	0.398	–	–	–
O=C(c1cccc(Oc2nc(-c3cncc(F)c3)ncc2NC[C@@H]2CCCN2)c1)N1CCCC1 [Cpd 171]	0.257	–	–	–
